Data from ChEMBL document CHEMBL3046196, “Dimeric 2-(2-chlorophenyl)-quinazolin-4-ones as potential antimicrobial agents” (2012).
Values after ≈ are worked out from the molar mass of the structure shown.

Key:
Assay type in all cases: functional
Aspergillus clavatus = experiment: Antimicrobial activity against Aspergillus clavatus MTCC 1323
Aspergillus niger = experiment: Antimicrobial activity against Aspergillus niger MTCC 282
Candida albicans = experiment: Antimicrobial activity against Candida albicans MTCC 227
Streptococcus pyogenes = experiment: Antimicrobial activity against Streptococcus pyogenes MTCC 442 after 24 and 48 hr by serial broth dilution method
Staphylococcus aureus = experiment: Antimicrobial activity against Staphylococcus aureus MTCC 96 after 24 and 48 hr by serial broth dilution method
Pseudomonas aeruginosa = experiment: Antimicrobial activity against Pseudomonas aeruginosa MTCC 1688 after 24 and 48 hr by serial broth dilution method
Escherichia coli = experiment: Antimicrobial activity against Escherichia coli MTCC 443 after 24 and 48 hr by serial broth dilution method

SMILES | MIC99 (Aspergillus clavatus) [µg/mL] | MIC99 (Aspergillus niger) [µg/mL] | MIC99 (Candida albicans) [µg/mL] | MIC99 (Streptococcus pyogenes) [µg/mL] | MIC99 (Staphylococcus aureus) [µg/mL] | MIC99 (Pseudomonas aeruginosa) [µg/mL] | MIC99 (Escherichia coli) [µg/mL]
O=c1c2ccccc2nc(-c2ccccc2Cl)n1CCc1ccc2nc(-c3ccccc3Cl)n(-c3ccc(Cl)c(Cl)c3)c(=O)c2c1 | 100 (≈ 146 µM) | 500 (≈ 731 µM) | 100 (≈ 146 µM) | 50 (≈ 73.1 µM) | 50 (≈ 73.1 µM) | 100 (≈ 146 µM) | 200 (≈ 292 µM)
O=c1c2ccccc2nc(-c2ccccc2Cl)n1CCc1ccc2nc(-c3ccccc3Cl)n(-c3cccc([N+](=O)[O-])c3)c(=O)c2c1 | 100 (≈ 151 µM) | 1000 (≈ 1510 µM) | 1000 (≈ 1510 µM) | 50 (≈ 75.7 µM) | 50 (≈ 75.7 µM) | 100 (≈ 151 µM) | 50 (≈ 75.7 µM)
O=c1c2ccccc2nc(-c2ccccc2Cl)n1CCc1ccc2nc(-c3ccccc3Cl)n(-c3ccc([N+](=O)[O-])cc3)c(=O)c2c1 | 500 (≈ 757 µM) | 500 (≈ 757 µM) | 500 (≈ 757 µM) | 100 (≈ 151 µM) | 200 (≈ 303 µM) | 500 (≈ 757 µM) | 100 (≈ 151 µM)
O=c1c2ccccc2nc(-c2ccccc2Cl)n1CCc1ccc2nc(-c3ccccc3Cl)n(-c3ccc(Br)cc3)c(=O)c2c1 | 1000 (≈ 1440 µM) | 500 (≈ 720 µM) | 1000 (≈ 1440 µM) | 500 (≈ 720 µM) | 500 (≈ 720 µM) | 200 (≈ 288 µM) | 200 (≈ 288 µM)
Cc1ccc(-n2c(-c3ccccc3Cl)nc3ccc(CCn4c(-c5ccccc5Cl)nc5ccccc5c4=O)cc3c2=O)c([N+](=O)[O-])c1 | 100 (≈ 148 µM) | 1000 (≈ 1480 µM) | 500 (≈ 741 µM) | 25 (≈ 37.1 µM) | 100 (≈ 148 µM) | 500 (≈ 741 µM) | 200 (≈ 296 µM)
O=c1c2ccccc2nc(-c2ccccc2Cl)n1CCc1ccc2nc(-c3ccccc3Cl)n(-c3ccccc3[N+](=O)[O-])c(=O)c2c1 | 1000 (≈ 1510 µM) | 100 (≈ 151 µM) | 100 (≈ 151 µM) | 12.5 (≈ 18.9 µM) | 200 (≈ 303 µM) | 200 (≈ 303 µM) | 100 (≈ 151 µM)
CC1(C)S[C@@H]2[C@H](NC(=O)[C@H](N)c3ccccc3)C(=O)N2[C@H]1C(=O)O [AMPICILLIN] | – | – | – | 100 (≈ 286 µM) | 250 (≈ 715 µM) | 100 (≈ 286 µM) | 100 (≈ 286 µM)
O=c1c2ccccc2nc(-c2ccccc2Cl)n1CCc1ccc2nc(-c3ccccc3Cl)n(-c3c(Cl)cc([N+](=O)[O-])cc3Cl)c(=O)c2c1 | 100 (≈ 137 µM) | 100 (≈ 137 µM) | 500 (≈ 685 µM) | 50 (≈ 68.5 µM) | 100 (≈ 137 µM) | 500 (≈ 685 µM) | 500 (≈ 685 µM)
O=c1c2ccccc2nc(-c2ccccc2Cl)n1CCc1ccc2nc(-c3ccccc3Cl)n(-c3ccccc3Cl)c(=O)c2c1 | 100 (≈ 154 µM) | 100 (≈ 154 µM) | 500 (≈ 769 µM) | 50 (≈ 76.9 µM) | 200 (≈ 308 µM) | 500 (≈ 769 µM) | 500 (≈ 769 µM)

Next, values leading:

MIC99 (Aspergillus clavatus) [µg/mL] | MIC99 (Aspergillus niger) [µg/mL] | MIC99 (Candida albicans) [µg/mL] | MIC99 (Streptococcus pyogenes) [µg/mL] | MIC99 (Staphylococcus aureus) [µg/mL] | MIC99 (Pseudomonas aeruginosa) [µg/mL] | MIC99 (Escherichia coli) [µg/mL] | SMILES
100 (≈ 283 µM) | 100 (≈ 283 µM) | 500 (≈ 1420 µM) | – | – | – | – | COC1=CC(=O)C[C@@H](C)[C@]12Oc1c(Cl)c(OC)cc(OC)c1C2=O [GRISEOFULVIN]
500 (≈ 777 µM) | 500 (≈ 777 µM) | 200 (≈ 311 µM) | 25 (≈ 38.8 µM) | 100 (≈ 155 µM) | 200 (≈ 311 µM) | 100 (≈ 155 µM) | Cc1ccc(C)c(-n2c(-c3ccccc3Cl)nc3ccc(CCn4c(-c5ccccc5Cl)nc5ccccc5c4=O)cc3c2=O)c1
500 (≈ 777 µM) | 500 (≈ 777 µM) | 100 (≈ 155 µM) | 50 (≈ 77.7 µM) | 50 (≈ 77.7 µM) | 100 (≈ 155 µM) | 50 (≈ 77.7 µM) | Cc1ccc(-n2c(-c3ccccc3Cl)nc3ccc(CCn4c(-c5ccccc5Cl)nc5ccccc5c4=O)cc3c2=O)c(C)c1
500 (≈ 724 µM) | 500 (≈ 724 µM) | 100 (≈ 145 µM) | 100 (≈ 145 µM) | 100 (≈ 145 µM) | 500 (≈ 724 µM) | 100 (≈ 145 µM) | COc1ccc(-n2c(-c3ccccc3Cl)nc3ccc(CCn4c(-c5ccccc5Cl)nc5ccccc5c4=O)cc3c2=O)c([N+](=O)[O-])c1
500 (≈ 777 µM) | 500 (≈ 777 µM) | 500 (≈ 777 µM) | 100 (≈ 155 µM) | 500 (≈ 777 µM) | 100 (≈ 155 µM) | 50 (≈ 77.7 µM) | Cc1cccc(-n2c(-c3ccccc3Cl)nc3ccc(CCn4c(-c5ccccc5Cl)nc5ccccc5c4=O)cc3c2=O)c1C
